Test results taken from patent publication US9051270B2, “Pyridone amides as modulators of sodium channels” (Vertex Pharmaceuticals Incorporated, priority 2013, dated 2015).

These molecules were tested against human Nav1.8 (Homo sapiens (Human), UniProt Q9Y5Y9) (assay: E-VIPR optical membrane potential assay with electrical stimulation). Conditions: HEK cells expressing human Nav1.8.
Format: cell-based
Text: Sodium channels are voltage-dependent proteins that can be activated by inducing membrane voltage changes by applying electric fields. […] The instrument comprises a microtiter plate handler, an optical system for exciting the coumarin dye while simultaneously recording the coumarin and oxonol emissions, a waveform generator, a current- or voltage-controlled amplifier, and a device for inserting electrodes in well. Under integrated computer control, this instrument passes user-programmed electrical stimulus protocols to cells within the wells of the microtiter plate.
24 hours before the assay on E-VIPR, HEK cells expressing human Nav1.8 were seeded in 384-well poly-lysine coated plates at 15,000-20,000 cells per well. […] Cells were grown in vented cap flasks, in 90% humidity and 5% CO2.
To make the solution added volume of 10% Pluronic F127 stock equal to volumes of CC2-DMPE+DiSBAC6(3). The order of preparation was first mixing Pluronic and CC2-DMPE, then adding DiSBAC6(3) while vortexing, then adding Bath1+β-Cyclodextrin.
1) Pre-spotted compounds (in neat DMSO) into compound plates. […] Final compound plate volume was 80 μL (80-fold intermediate dilution from 1 μL DMSO spot; 160-fold final dilution after transfer to cell plate).
2) Prepared Hexyl Dye Solution.
3) Prepared cell plates. On the day of the assay, medium was aspirated and cells were washed three times with 100 μL of Bath1 Solution, maintaining 25 μL residual volume in each well.
4) Dispensed 25 μL per well of Hexyl Dye Solution into cell plates. Incubated for 20-35 minutes at room temp or ambient conditions.
5) Dispensed 80 μL per well of Bath1 into compound plates. Acid Yellow-17 (1 mM) was added and Potassium Chloride was altered from 4.5 to 20 mM depending on the NaV subtype and assay sensitivity.
6) Washed cell plates three times with 100 μL per well of Bath1, leaving 25 μL of residual volume. Then transferred 25 uL per well from Compound Plates to Cell Plates. Incubated for 20-35 minutes at room temp/ambient condition.
7) Read Plate on E-VIPR. […] A pre-stimulus recording was performed for 0.5 seconds to obtain the un-stimulated intensities baseline. The stimulatory waveform was followed by 0.5 seconds of post-stimulation recording to examine the relaxation to the resting state.
Data was analyzed and reported as normalized ratios of emission intensities measured in the 460 nm and 580 nm channels. The response as a function of time was reported as the ratios obtained using the following formula: […]
The data was further reduced by calculating the initial (Ri) and final (Rf) ratios. These were the average ratio values during part or all of the pre-stimulation period, and during sample points during the stimulation period. The response to the stimulus R=Rf/Ri was then calculated and reported as a function of time.
Control responses were obtained by performing assays in the presence of a compound with the desired properties (positive control), such as tetracaine, and in the absence of pharmacological agents (negative control). Responses to the negative (N) and positive (P) controls were calculated as above. The compound antagonist activity A is defined as:
[formula] where R is the ratio response of the test compound

Chain of human Nav1.8 (Q9Y5Y9 whole entry): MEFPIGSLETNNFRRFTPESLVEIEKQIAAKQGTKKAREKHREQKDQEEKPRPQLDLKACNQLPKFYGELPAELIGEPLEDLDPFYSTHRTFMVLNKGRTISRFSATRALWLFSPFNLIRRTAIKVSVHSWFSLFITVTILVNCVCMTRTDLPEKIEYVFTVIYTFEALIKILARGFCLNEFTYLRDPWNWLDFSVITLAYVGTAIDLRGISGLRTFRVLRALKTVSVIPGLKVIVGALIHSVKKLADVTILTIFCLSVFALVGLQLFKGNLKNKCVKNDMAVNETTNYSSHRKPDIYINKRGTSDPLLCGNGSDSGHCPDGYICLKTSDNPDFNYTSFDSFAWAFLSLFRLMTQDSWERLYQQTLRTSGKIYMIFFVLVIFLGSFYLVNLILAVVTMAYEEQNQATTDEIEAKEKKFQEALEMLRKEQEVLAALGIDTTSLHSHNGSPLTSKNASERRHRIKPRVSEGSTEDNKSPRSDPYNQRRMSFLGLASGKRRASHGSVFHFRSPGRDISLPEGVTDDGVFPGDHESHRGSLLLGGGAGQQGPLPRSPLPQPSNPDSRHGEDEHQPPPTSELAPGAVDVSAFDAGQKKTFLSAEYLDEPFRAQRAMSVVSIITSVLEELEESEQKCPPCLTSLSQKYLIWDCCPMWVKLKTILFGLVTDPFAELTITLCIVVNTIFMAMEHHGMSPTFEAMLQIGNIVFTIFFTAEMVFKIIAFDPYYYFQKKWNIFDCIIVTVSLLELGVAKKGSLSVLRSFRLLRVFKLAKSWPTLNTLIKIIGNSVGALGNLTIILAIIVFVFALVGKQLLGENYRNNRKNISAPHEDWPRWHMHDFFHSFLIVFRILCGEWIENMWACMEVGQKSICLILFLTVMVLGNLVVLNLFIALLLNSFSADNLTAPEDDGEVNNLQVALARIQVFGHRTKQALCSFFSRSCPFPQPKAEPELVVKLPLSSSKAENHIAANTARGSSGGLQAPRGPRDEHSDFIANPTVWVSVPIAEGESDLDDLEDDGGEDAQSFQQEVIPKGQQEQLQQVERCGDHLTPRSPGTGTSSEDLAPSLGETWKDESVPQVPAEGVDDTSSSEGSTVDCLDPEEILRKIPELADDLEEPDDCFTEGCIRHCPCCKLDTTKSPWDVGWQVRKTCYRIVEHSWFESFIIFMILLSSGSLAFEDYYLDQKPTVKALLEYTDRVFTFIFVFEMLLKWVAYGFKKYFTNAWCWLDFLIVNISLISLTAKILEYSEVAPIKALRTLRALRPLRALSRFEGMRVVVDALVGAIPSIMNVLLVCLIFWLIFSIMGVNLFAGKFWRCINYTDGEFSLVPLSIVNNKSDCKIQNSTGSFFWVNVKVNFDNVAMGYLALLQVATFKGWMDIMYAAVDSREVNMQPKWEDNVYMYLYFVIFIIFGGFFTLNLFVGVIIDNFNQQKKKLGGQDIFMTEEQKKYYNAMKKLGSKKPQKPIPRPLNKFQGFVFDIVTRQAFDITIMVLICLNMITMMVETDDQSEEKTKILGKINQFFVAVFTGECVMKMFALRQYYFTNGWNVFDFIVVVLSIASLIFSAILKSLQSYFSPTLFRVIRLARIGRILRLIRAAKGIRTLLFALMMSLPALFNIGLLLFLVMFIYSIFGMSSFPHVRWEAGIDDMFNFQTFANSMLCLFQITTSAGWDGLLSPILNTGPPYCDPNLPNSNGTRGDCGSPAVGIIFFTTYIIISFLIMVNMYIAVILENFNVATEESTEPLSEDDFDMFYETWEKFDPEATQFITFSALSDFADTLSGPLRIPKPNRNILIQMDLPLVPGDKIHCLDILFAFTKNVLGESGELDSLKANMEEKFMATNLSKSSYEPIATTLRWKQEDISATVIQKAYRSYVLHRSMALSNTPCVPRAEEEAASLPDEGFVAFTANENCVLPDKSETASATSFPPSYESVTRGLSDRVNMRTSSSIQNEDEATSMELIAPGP

| Structure (SMILES) | IC50 [nM] |
| --- | --- |
| CC1(C)CC1COc1ccc(C(F)(F)F)cc1C(=O)Nc1cc[nH]c(=O)c1 (centres unmarked) [Compound 134, 2-((2,2-dimethylcyclopropyl)methoxy)-N-(2-oxo-1,2-dihydropyridin-4-yl)-5-(trifluoromethyl)benzamide] | 21000 |
| O=C(Nc1cc[nH]c(=O)c1)c1cc(OC(F)(F)F)ccc1OCCCC(F)(F)F [Compound 139, N-(2-oxo-1,2-dihydropyridin-4-yl)-2-(4,4,4-trifluorobutoxy)-5-(trifluoromethoxy)benzamide] | 3050 |
| COc1ccc(Oc2ccc(C(F)(F)F)cc2C(=O)Nc2cc[nH]c(=O)c2)cc1F [Compound 59, 2-(3-fluoro-4-methoxyphenoxy)-N-(2-oxo-1,2-dihydropyridin-4-yl)-5-(trifluoromethyl)benzamide] | 32 |
| O=C(Nc1ccc(=O)[nH]c1)c1ccc(C(F)(F)F)cc1Oc1ccc(F)cc1 [Compound 6, 2-(4-fluorophenoxy)-N-(6-oxo-1,6-dihydropyridin-3-yl)-4-(trifluoromethyl)benzamide] | 245 |
| O=C(Nc1cc[nH]c(=O)c1)c1cc(F)ccc1Oc1ccc(OCC(F)(F)F)cc1 [Compound 107, 5-fluoro-N-(2-oxo-1,2-dihydropyridin-4-yl)-2-(4-(2,2,2-trifluoroethoxy)phenoxy)benzamide] | 390 |
| O=C(Nc1cc[nH]c(=O)c1)c1ccccc1Oc1ccc(F)cc1 [Compound 1, 2-(4-fluorophenoxy)-N-(2-oxo-1,2-dihydropyridin-4-yl)benzamide] | 1090 |
| O=C(Nc1cc[nH]c(=O)c1)c1c(Oc2ccc(F)cc2)cc(C(F)(F)F)cc1C(F)(F)F [Compound 155, 2-(4-fluorophenoxy)-N-(2-oxo-1,2-dihydropyridin-4-yl)-4,6-bis(trifluoromethyl)benzamide] | 11 |
| O=C(Nc1cc[nH]c(=O)c1)c1ccc(Cl)cc1Oc1ccc(C(F)(F)F)nc1 [Compound 143, 4-chloro-N-(2-oxo-1,2-dihydropyridin-4-yl)-2-((6-(trifluoromethyl)pyridin-3-yl)oxy)benzamide] | 3350 |
| O=C(Nc1cc[nH]c(=O)c1)c1ccc(C(F)(F)F)cc1OCc1cc(F)ccc1O [Compound 159, 2-((5-fluoro-2-hydroxybenzyl)oxy)-N-(2-oxo-1,2-dihydropyridin-4-yl)-4-(trifluoromethyl)benzamide] | 2600 |
| CC(C)(C)c1ccc(C(=O)Nc2cc[nH]c(=O)c2)c(Oc2ccc(C(F)(F)F)nc2)c1 [Compound 141, 4-(tert-butyl)-N-(2-oxo-1,2-dihydropyridin-4-yl)-2-((6-(trifluoromethyl)pyridin-3-yl)oxy)benzamide] | 78 |
| O=C(Nc1cc[nH]c(=O)c1)c1cc(OC(F)(F)F)ccc1Oc1ccc(F)cc1 [Compound 38, 2-(4-fluorophenoxy)-N-(2-oxo-1,2-dihydropyridin-4-yl)-5-(trifluoromethoxy)benzamide] | 69 |
| O=C(Nc1cc[nH]c(=O)c1)c1cc(OC(F)(F)F)ccc1OC1CCCCC1 [Compound 137, 2-(cyclohexyloxy)-N-(2-oxo-1,2-dihydropyridin-4-yl)-5-(trifluoromethoxy)benzamide] | 12600 |
| O=C(Nc1cc[nH]c(=O)c1)c1ccc(C(F)(F)F)cc1OC1CC2CCC1C2 (centres unmarked) [Compound 127, 2-(bicyclo[2.2.1]heptan-2-yloxy)-N-(2-oxo-1,2-dihydropyridin-4-yl)-4-(trifluoromethyl)benzamide] | 1300 |
| COc1cc(F)ccc1Oc1ccc(Cl)cc1C(=O)Nc1cc[nH]c(=O)c1 [Compound 70, 5-chloro-2-(4-fluoro-2-methoxyphenoxy)-N-(2-oxo-1,2-dihydropyridin-4-yl)benzamide] | 13 |
| COc1cc(C)ccc1Oc1ccc(C(F)(F)F)cc1C(=O)Nc1cc[nH]c(=O)c1 [Compound 47, 2-(2-methoxy-4-methylphenoxy)-N-(2-oxo-1,2-dihydropyridin-4-yl)-5-(trifluoromethyl)benzamide] | 135 |
| Cc1cc(C)c(C)c(Oc2ccc(C(F)(F)F)cc2C(=O)Nc2cc[nH]c(=O)c2)c1 [Compound 91, N-(2-oxo-1,2-dihydropyridin-4-yl)-5-(trifluoromethyl)-2-(2,3,5-trimethylphenoxy)benzamide] | 420 |

| Structure (SMILES) | IC50 [nM] |
| --- | --- |
| COc1ccc(Oc2ccc(F)cc2C(=O)Nc2cc[nH]c(=O)c2)c(Cl)c1 [Compound 103, 2-(2-chloro-4-methoxyphenoxy)-5-fluoro-N-(2-oxo-1,2-dihydropyridin-4-yl)benzamide] | 330 |
| COc1cc(F)ccc1Oc1cc(C(F)(F)F)cc(C(F)(F)F)c1C(=O)Nc1cc[nH]c(=O)c1 [Compound 154, 2-(4-fluoro-2-methoxyphenoxy)-N-(2-oxo-1,2-dihydropyridin-4-yl)-4,6-bis(trifluoromethyl)benzamide] | 5 |
| COc1cc(F)ccc1Oc1cc(C(F)(F)F)ccc1C(=O)Nc1cc[nH]c(=O)c1 [Compound 158, 2-(4-fluoro-2-methoxyphenoxy)-N-(2-oxo-1,2-dihydropyridin-4-yl)-4-(trifluoromethyl)benzamide] | 2 |
| O=C(Nc1cc[nH]c(=O)c1)c1cc(Cl)ccc1Oc1ccc(F)cc1 [Compound 67, 5-chloro-2-(4-fluorophenoxy)-N-(2-oxo-1,2-dihydropyridin-4-yl)-benzamide] | 69 |
| O=C(Nc1cc[nH]c(=O)c1)c1ccc(C(F)(F)F)cc1OCC1CC1(F)F (centres unmarked) [Compound 126, 2-((2,2-difluorocyclopropyl)methoxy)-N-(2-oxo-1,2-dihydropyridin-4-yl)-4-(trifluoromethyl)benzamide] | 1400 |
| COc1ccc(Oc2cc(C(F)(F)F)ccc2C(=O)Nc2cc[nH]c(=O)c2)c(F)c1 [Compound 84, 2-(2-fluoro-4-methoxyphenoxy)-N-(2-oxo-1,2-dihydropyridin-4-yl)-4-(trifluoromethyl)benzamide] | 46 |
| O=C(Nc1cc[nH]c(=O)c1)c1cc(Cl)ccc1Oc1ccc(F)cc1F [Compound 69, 5-chloro-2-(2,4-difluorophenoxy)-N-(2-oxo-1,2-dihydropyridin-4-yl)benzamide] | 112 |
| COc1ccc(Oc2cc(C(F)(F)C(F)(F)F)ccc2C(=O)Nc2cc[nH]c(=O)c2)cc1F [Compound 89, 2-(3-fluoro-4-methoxyphenoxy)-N-(2-oxo-1,2-dihydropyridin-4-yl)-4-(perfluoroethyl)benzamide] | 16 |
| Cc1ccc(F)cc1Oc1ccc(C(F)(F)F)cc1C(=O)Nc1cc[nH]c(=O)c1 [Compound 56, 2-(5-fluoro-2-methylphenoxy)-N-(2-oxo-1,2-dihydropyridin-4-yl)-5-(trifluoromethyl)benzamide] | 69 |
| Cc1c[nH]c(=O)cc1NC(=O)c1ccc(C(F)(F)F)cc1Oc1ccc(F)cc1C [Compound 86, 2-(4-fluoro-2-methylphenoxy)-N-(5-methyl-2-oxo-1,2-dihydropyridin-4-yl)-4-(trifluoromethyl)benzamide] | 3550 |
| O=C(Nc1cc[nH]c(=O)c1)c1cc(C(F)(F)F)ccc1Oc1ccc(Cl)cc1F [Compound 51, 2-(4-chloro-2-fluorophenoxy)-N-(2-oxo-1,2-dihydropyridin-4-yl)-5-(trifluoromethyl)benzamide] | 87 |
| Cn1cc(NC(=O)c2ccc(C(C)(C)C)cc2Oc2ccc(C(F)(F)F)nc2)ccc1=O [Compound 149, 4-(tert-butyl)-N-(1-methyl-6-oxo-1,6-dihydropyridin-3-yl)-2-((6-(trifluoromethyl)pyridin-3-yl)oxy)benzamide] | 1650 |
| Cc1ncccc1Oc1cc(C(F)(F)F)ccc1C(=O)Nc1cc[nH]c(=O)c1 [Compound 147, 2-((2-methylpyridin-3-yl)oxy)-N-(2-oxo-1,2-dihydropyridin-4-yl)-4-(trifluoromethyl)benzamide] | 3800 |
| O=C(Nc1cc[nH]c(=O)c1)c1ccc(C(F)(F)F)cc1Oc1ccc(Cl)cc1 [Compound 78, 2-(4-chlorophenoxy)-N-(2-oxo-1,2-dihydropyridin-4-yl)-4-(trifluoromethyl)benzamide] | 31 |
| COc1cc(F)ccc1Oc1cc(C#N)ccc1C(=O)Nc1cc[nH]c(=O)c1 [Compound 22, 4-cyano-2-(4-fluoro-2-methoxyphenoxy)-N-(2-oxo-1,2-dihydropyridin-4-yl)benzamide] | 100 |
| O=C(Nc1cc[nH]c(=O)c1)c1ccc(Cl)cc1Oc1c(F)cccc1F [Compound 19, 4-chloro-2-(2,6-difluorophenoxy)-N-(2-oxo-1,2-dihydropyridin-4-yl)benzamide] | 6000 |
